Each structure is given as a SMILES string. Some results are limits rather than exact numbers.

A word on the EC50: it is the concentration giving half of the maximal effect. Higher therefore signals a need for much substance.

For test [1], the target named is T1, mMC4R (Mus musculus, UniProt P56450). Briefly: cell-based.
Description: (§1) Pyrrolidine bis-cyclic guanidine compounds were assessed for biological activity using the AlphaScreen cAMP kit with HEK293 cells stably expressing the mMC1R, mMC3R, mMC4R, or mMC5R, as previously described [37, 38, 39]. […] Compounds were assayed for agonist activity in a 7-point dose–response curve (10^−3 to 10^−9 M). […] The purified compounds were dissolved in DMSO at a stock concentration of 10^−1 M and assayed using HEK293 cells stably expressing the mouse MC1R, MC3R, MC4R, and MC5R using the AlphaScreen cAMP bioassay (PerkinElmer, Waltham, MA, USA) according to the manufacturer’s instructions and as previously described [37, 38, 39].
(§2) Briefly, cells 70−90% confluent were dislodged with Versene (Gibco, Waltham, MA, USA) at 37 °C and 10,000 cells/well were plated in a 384-well plate (Optiplate, PerkinElmer, Waltham, MA, USA) with 10 μL of freshly prepared stimulation buffer (1× HBSS, 5 mM HEPES, 0.5 mM IBMX, 0.1% BSA, pH = 7.4) with 0.5 μg of anti-cAMP acceptor beads per well. The cells were stimulated with the addition of 5 μL of stimulation buffer containing compound or forskolin (10^−4 M) and incubated in the dark at room temperature for 2 h. Following stimulation, streptavidin donor beads (0.5 μg) and biotinylated cAMP (0.62 μmol) were added to the wells in a green light environment with 10 μL of lysis buffer (5 mM HEPES, 0.3% Tween-20, 0.1% BSA, pH = 7.4) and the plates were incubated in the dark at room temperature for an additional 2 h. Plates were read on a Enspire (PerkinElmer, Waltham, MA, USA) Alpha plate reader using a pre-normalized assay protocol (set by the manufacturer).
Test [2] deals with T1, mMC4R. Description: AlphaScreen cAMP agonist assay, HEK293 cells stably expressing mMC4R. Conditions: for mMC4R percent maximal stimulatory response (compared to NDP-MSH): at 1 mM, not enough stimulation to determine EC50; for mMC4R partial agonist efficacy bin: sigmoidal curve, efficacy <90% of NDP-MSH. (In Alpha technology, singlet oxygen from a donor bead excites a nearby acceptor bead.)
Description: as §1, §2

Test [3] concerns the target mMC3R (Mus musculus, UniProt P33033). Briefly: AlphaScreen cAMP agonist assay, HEK293 cells stably expressing mMC3R. Conditions: for mMC3R agonist efficacy (in words): relative to NDP-MSH, full = >90% receptor activation; for mMC3R partial agonist efficacy bin: sigmoidal curve, efficacy <90% of NDP-MSH; for mMC3R percent maximal stimulatory response (compared to NDP-MSH): at 1 mM, not enough stimulation to determine EC50.
Description: as §1, §2

The target in test [4] is mMC5R (Mus musculus, UniProt P41149). Briefly: AlphaScreen cAMP agonist assay, HEK293 cells stably expressing mMC5R.
Sequence of mMC5R (P41149 whole entry): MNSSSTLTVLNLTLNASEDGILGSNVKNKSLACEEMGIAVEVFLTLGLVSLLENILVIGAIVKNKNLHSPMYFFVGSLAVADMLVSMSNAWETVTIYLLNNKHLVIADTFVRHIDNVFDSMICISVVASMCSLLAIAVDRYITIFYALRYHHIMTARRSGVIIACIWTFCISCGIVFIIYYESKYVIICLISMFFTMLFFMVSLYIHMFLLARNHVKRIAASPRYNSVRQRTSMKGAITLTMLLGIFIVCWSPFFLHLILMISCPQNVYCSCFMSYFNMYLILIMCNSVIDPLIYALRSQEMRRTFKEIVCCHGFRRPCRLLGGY
Description: as §1, §2
For test [5], the target named is mMC1R (Mus musculus, UniProt Q01727). Briefly: AlphaScreen cAMP agonist assay, HEK293 cells stably expressing mMC1R. Conditions: for fold decreased mMC1R agonist potency: relative to 2718.003; for mMC1R percent maximal stimulatory response (compared to NDP-MSH): at 1 mM, not enough stimulation to determine EC50.
Sequence of mMC1R (Q01727 whole entry): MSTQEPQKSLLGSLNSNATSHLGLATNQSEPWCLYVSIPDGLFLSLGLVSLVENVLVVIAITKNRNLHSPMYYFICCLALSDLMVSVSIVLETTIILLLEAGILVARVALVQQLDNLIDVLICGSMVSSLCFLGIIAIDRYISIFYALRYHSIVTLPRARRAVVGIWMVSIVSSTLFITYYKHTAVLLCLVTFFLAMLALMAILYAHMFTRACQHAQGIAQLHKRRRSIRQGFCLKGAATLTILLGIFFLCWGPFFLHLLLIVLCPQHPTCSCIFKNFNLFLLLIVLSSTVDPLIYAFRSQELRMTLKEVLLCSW

T1 sequence (P56450 whole entry): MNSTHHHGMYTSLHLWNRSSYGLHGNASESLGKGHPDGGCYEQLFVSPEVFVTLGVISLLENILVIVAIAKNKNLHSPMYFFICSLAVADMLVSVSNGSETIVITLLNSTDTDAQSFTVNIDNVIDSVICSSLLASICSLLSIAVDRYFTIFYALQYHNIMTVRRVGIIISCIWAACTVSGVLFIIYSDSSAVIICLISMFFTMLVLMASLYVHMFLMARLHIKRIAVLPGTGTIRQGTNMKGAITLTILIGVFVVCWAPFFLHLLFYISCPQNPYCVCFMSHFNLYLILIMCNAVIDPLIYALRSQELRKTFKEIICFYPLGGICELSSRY
Sequence of mMC3R (P33033 whole entry): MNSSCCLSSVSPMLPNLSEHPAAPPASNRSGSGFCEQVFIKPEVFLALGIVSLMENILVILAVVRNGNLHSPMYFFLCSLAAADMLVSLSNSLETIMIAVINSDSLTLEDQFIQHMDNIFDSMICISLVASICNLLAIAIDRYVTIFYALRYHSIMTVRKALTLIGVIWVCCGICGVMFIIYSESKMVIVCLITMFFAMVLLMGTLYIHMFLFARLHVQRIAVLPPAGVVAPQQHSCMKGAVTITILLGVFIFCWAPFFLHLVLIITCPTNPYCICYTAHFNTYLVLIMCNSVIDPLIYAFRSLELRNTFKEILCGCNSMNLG

`CC(C)[C@@H]1CNC(=N)N1C[C@@H]1CCCN1C[C@@H](CC1CCCCC1)N1CCN(CC2CCC(C(C)(C)C)CC2)C1=N` (stereo partly drawn) [Compound 2718.027] showed a Kb in test [1] of 0.631 µM. Moreover, the “mMC4R percent maximal stimulatory response (compared to NDP-MSH)” value in test [2] was 45% @ 1 mM. In addition, the values for the concentration for a half-maximal effect (EC50) in test [3], in test [4] and in test [5] were 2.1 ± 0.2 µM, 0.51 ± 0.07 µM and 0.34 ± 0.03 µM, respectively. In test [3], the “mMC3R agonist efficacy (in words)” value is listed as “full agonist efficacy”.
For `CCC[C@H]1CN([C@H](CC2CCCCC2)CN2CCC[C@H]2CN2C(=N)NC[C@H]2C(C)C)C(=N)N1CC1CCC(C(C)(C)C)CC1` (stereo partly drawn) [Compound 2718.050], in test [2], the midpoint of the response, the EC50, lay at 39 µM and the “mMC4R partial agonist efficacy bin” value is reported as “B (B (51–90% receptor activation))”. For the same compound, in test [3], the concentration giving a half-maximal response (EC50) worked out at 27 µM and the “mMC3R partial agonist efficacy bin” value is “B (B (51–90% receptor activation))”. The compound further yielded an EC50 in test [4] of 4.2 ± 0.5 µM. In addition, in test [5], a half-maximal response (EC50) required 3.2 ± 0.5 µM and the “fold decreased mMC1R agonist potency” value was found to be 5 fold.
Consider `CCC[C@@H]1CN([C@@H](CC2CCCCC2)CN2CCC[C@H]2CN2C(=N)NC[C@H]2C(C)C)C(=N)N1CC1CCC(C(C)(C)C)CC1` (stereo partly drawn) [Compound 2718.051], for which, in test [2], it took 50 µM to reach a half-maximal effect (EC50) and the “mMC4R partial agonist efficacy bin” value is listed as “B (B (51–90% receptor activation))”. Moreover, the “mMC3R percent maximal stimulatory response (compared to NDP-MSH)” value in test [3] is listed as 65% @ 1 mM. The compound further gave an EC50 in test [4] of 11 µM. Moreover, the “fold decreased mMC5R agonist potency” value in test [4] (relative to 2718.003) amounted to 9 fold. Besides, in test [5], a half-maximal effect (EC50) was put at 6 ± 2 µM and the “fold decreased mMC1R agonist potency” value was 9 fold.
Regarding `CCC[C@@H]1CN([C@H](CC2CCCCC2)CN2CCC[C@@H]2CN2C(=N)NC[C@H]2C(C)C)C(=N)N1CC1CCC(C(C)(C)C)CC1` (stereo partly drawn) [Compound 2718.052], the EC50 was 12 µM in test [2], 2.6 ± 0.1 µM in test [3], 2.92 ± 0.07 µM in test [4] and 2.5 ± 0.3 µM in test [5]. Also, in test [2], the “mMC4R partial agonist efficacy bin” value is “B (B (51–90% receptor activation))”. Also, in test [3], the “mMC3R partial agonist efficacy bin” value is reported as “B (B (51–90% receptor activation))”. Further, in test [5], the “fold decreased mMC1R agonist potency” value amounted to 4 fold.
In the case of `CCC[C@@H]1CN([C@H](CC2CCCCC2)CN2CCC[C@H]2CN2C(=N)NC[C@@H]2C(C)C)C(=N)N1CC1CCC(C(C)(C)C)CC1` (stereo partly drawn) [Compound 2718.053], the Kb in test [1] is 1.26 µM. For the same compound, the “mMC4R percent maximal stimulatory response (compared to NDP-MSH)” value in test [2] turned out to be 60% @ 1 mM. Besides, the EC50 in test [3] worked out at 2.4 ± 0.2 µM; in test [4] it was 2.4 ± 0.3 µM; in test [5], 1 ± 0.3 µM. Besides, the “mMC3R agonist efficacy (in words)” value in test [3] is on record as “full agonist efficacy”.
Take `CCC[C@H]1CN([C@@H](CC2CCCCC2)CN2CCC[C@@H]2CN2C(=N)NC[C@@H]2C(C)C)C(=N)N1CC1CCC(C(C)(C)C)CC1` (stereo partly drawn) [Compound 2718.054]: the “mMC4R percent maximal stimulatory response (compared to NDP-MSH)” value in test [2] was 60% @ 1 mM. The “mMC3R percent maximal stimulatory response (compared to NDP-MSH)” value in test [3] worked out at 55% @ 1 mM. The same compound displayed an EC50 in test [4] of 3.5 ± 0.3 µM. The “mMC1R percent maximal stimulatory response (compared to NDP-MSH)” value in test [5] amounted to 65% @ 1 mM.
`CCCCC(CN1CCCC1CN1C(=N)NCC1CC(C)C)N1CC(C(C)O)N(CC2CCC(C(C)(C)C)CC2)C1=N` (stereo not drawn) [Compound 2718.060]: in test [2], the “mMC4R percent maximal stimulatory response (compared to NDP-MSH)” value was found to be 45% @ 1 mM. The concentration giving a half-maximal response (EC50) came to 2.2 ± 0.2 µM in test [3], 1.1 ± 0.3 µM in test [4] and 2.2 ± 0.7 µM in test [5]. Also, the “mMC3R partial agonist efficacy bin” value in test [3] is recorded as “B (B (51–90% receptor activation))”. Moreover, the “fold decreased mMC5R agonist potency” value in test [4] (relative to 2718.002) worked out at 4 fold. Moreover, the “mMC1R partial agonist efficacy bin” value in test [5] (sigmoidal curve, efficacy <90% of NDP-MSH) is “B (B (51–90% receptor activation))”.
As to `CC(C)CC1CNC(=N)N1CC1CCCN1CC(C)N1CC(C(C)O)N(CC2CCC(C(C)(C)C)CC2)C1=N` (stereo not drawn) [Compound 2718.061], in test [2], the EC50 was over 1000 µM. Also, in test [3], the “mMC3R percent maximal stimulatory response (compared to NDP-MSH)” value was determined as 20% @ 1 mM. In addition, in test [4] (at 1 mM, not enough stimulation to determine EC50), the “mMC5R percent maximal stimulatory response (compared to NDP-MSH)” value stood at 65% @ 1 mM. For the same compound, in test [5], the “mMC1R percent maximal stimulatory response (compared to NDP-MSH)” value worked out at 65% @ 1 mM.

Values taken from PMC10299128, “The Parallel Structure–Activity Relationship Screening of Three Compounds Identifies the Common Agonist Pharmacophore of Pyrrolidine Bis-Cyclic Guanidine Melanocortin-3 Receptor (MC3R) Small-Molecule Ligands” (International Journal of Molecular Sciences, 2023).
